Results published in patent publication US20250353853A1, “FLAVIVIRUS INHIBITORS” (IRBM S.P.A., priority 2022, published 2025).
Read-outs that look alike come from different tables or passages of the source.

Columns and labels:
[1] = molecular target: West Nile Virus (WNV) NS2B-NS3 protease (West Nile virus (WNV), UniProt P06935); assay: WNV Protease Inhibition Assay; format: biochemical
Text: WNV Protease Inhibition Assay

[2] = tested on: ZIKV replicon in Vero cells; assay: ZIKV Replication Inhibition Assay (replicon, NanoLuc); details: 72 h, read-out: Zika Replicon EC50
[3] = 2 nM protease, 10 μM pERTKR-AMC substrate, read-out: WNV Protease IC50

Sequence of West Nile Virus (WNV) NS2B-NS3 protease (P06935 1502-1679 limits assumed): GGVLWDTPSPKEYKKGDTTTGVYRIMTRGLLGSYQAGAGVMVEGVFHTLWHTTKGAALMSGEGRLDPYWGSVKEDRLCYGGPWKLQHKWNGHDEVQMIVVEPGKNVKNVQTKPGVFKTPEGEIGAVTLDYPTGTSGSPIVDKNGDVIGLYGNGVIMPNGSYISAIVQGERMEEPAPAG
Sequence of West Nile Virus (WNV) NS2B-NS3 protease (P06935 1371-1501 partner limits assumed): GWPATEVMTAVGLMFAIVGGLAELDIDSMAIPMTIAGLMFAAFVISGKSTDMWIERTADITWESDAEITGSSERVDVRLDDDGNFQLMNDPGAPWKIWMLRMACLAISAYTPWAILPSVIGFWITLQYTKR

SMILES	IC50 [1] [nM]	EC50 ([2]; Zika virus, Vero) [nM]	IC50 [1, 3] [nM]	IC50 ([1]; read-out: WNV Protease IC50, 2 nM protease, 10 μM pERTKR-AMC substrate) [nM]	EC50 ([2]; Vero cell line with stable ZIKV replicon, Nano-Glo) [nM]
Cc1noc(C)c1-c1ccc(C[n+]2cc([N-]C(=O)Nc3ncc(C(F)(F)F)s3)on2)nc1 [Example 166, (3-((5-(3,5-dimethylisoxazol-4-yl)pyridin-2-yl)methyl)-1,2,3-oxadiazol-3-ium-5-yl)((5-(trifluoromethyl)thiazol-2-yl)carbamoyl)amide]	100 to 1000	< 100			
Cc1noc(C)c1-c1cnc(C[n+]2cc([N-]C(=O)Nc3cccc(C(F)(F)F)c3)on2)nc1 [Example 167, (3-((5-(3,5-dimethylisoxazol-4-yl)pyrimidin-2-yl)methyl)-1,2,3-oxadiazol-3-ium-5-yl)((3-(trifluoromethyl)phenyl)carbamoyl)amide]	100 to 1000	< 100			
Cc1noc(C)c1-c1ccc(C[n+]2cc([N-]C(=O)Nc3cccc(C(F)F)c3)on2)nc1 [Example 168, ((3-(difluoromethyl)phenyl)carbamoyl)(3-((5-(3,5-dimethylisoxazol-4-yl)pyridin-2-yl)methyl)-1,2,3-oxadiazol-3-ium-5-yl)amide]	100 to 1000	100 to 1000			
O=C([N-]c1c[n+](Cc2ccc(-c3c(F)cncc3F)cn2)no1)Nc1cccc(C(F)(F)F)c1 [Example 170, (3-((3′,5′-difluoro-[3,4′-bipyridin]-6-yl)methyl)-1,2,3-oxadiazol-3-ium-5-yl)((3-(trifluoromethyl)phenyl)carbamoyl)amide]	100 to 1000	< 100			
O=C([N-]c1c[n+](Cc2ccc(-c3cccnc3Cl)cn2)no1)Nc1cccc(C(F)(F)F)c1 [Example 172, (3-((2′-chloro-[3,3′-bipyridin]-6-yl)methyl)-1,2,3-oxadiazol-3-ium-5-yl)((3-(trifluoromethyl)phenyl)carbamoyl)amide]	100 to 1000	< 100			
Cc1noc(C)c1-c1ccc(C[n+]2cc([N-]C(=O)Nc3cccc(C(F)(F)F)c3)on2)nn1 [Example 173, (3-((6-(3,5-dimethylisoxazol-4-yl)pyridazin-3-yl)methyl)-1,2,3-oxadiazol-3-ium-5-yl)((3-(trifluoromethyl)phenyl)carbamoyl)amide]		< 100	< 100		
Cc1cnn(C)c1-c1ccc(C[n+]2cc([N-]C(=O)Nc3ccnc(C(F)(F)F)c3)on2)nc1 [Example 175, (3-((5-(1,4-dimethyl-1H-pyrazol-5-yl)pyridin-2-yl)methyl)-1,2,3-oxadiazol-3-ium-5-yl)((2-(trifluoromethyl)pyridin-4-yl)carbamoyl)amide]		< 100	< 100		
Cc1ncnc(C)c1-c1ccc(C[n+]2cc([N-]C(=O)Nc3ccnc(C(F)(F)F)c3)on2)nc1 [Example 176, (3-((5-(4,6-dimethylpyrimidin-5-yl)pyridin-2-yl)methyl)-1,2,3-oxadiazol-3-ium-5-yl)((2-(trifluoromethyl)pyridin-4-yl)carbamoyl)amide]		100 to 1000	< 100		
O=C([N-]c1c[n+](Cc2ccc(-c3cncnc3C(F)(F)F)cn2)no1)Nc1ccnc(C(F)(F)F)c1 [Example 177, ((2-(trifluoromethyl)pyridin-4-yl)carbamoyl)(3-((5-(4-(trifluoromethyl)pyrimidin-5-yl)pyridin-2-yl)methyl)-1,2,3-oxadiazol-3-ium-5-yl)amide]		100 to 1000	< 100		
Cc1cnn(C)c1-c1ccc(C[n+]2cc([N-]C(=O)Nc3cncc(C(F)(F)F)c3)on2)nc1 [Example 178, (3-((5-(1,4-dimethyl-1H-pyrazol-5-yl)pyridin-2-yl)methyl)-1,2,3-oxadiazol-3-ium-5-yl)((5-(trifluoromethyl)pyridin-3-yl)carbamoyl)amide]	100 to 1000	< 100			
O=C([N-]c1c[n+](Cc2ccc(-c3cncnc3Cl)cn2)no1)Nc1cccc(C(F)(F)F)c1 [Example 179, (3-((5-(4-chloropyrimidin-5-yl)pyridin-2-yl)methyl)-1,2,3-oxadiazol-3-ium-5-yl)((3-(trifluoromethyl)phenyl)carbamoyl)amide]		1000 to 20000	< 100		
O=C([N-]c1c[n+](Cc2ccc(-c3c(Cl)ncnc3Cl)cn2)no1)Nc1cccc(C(F)(F)F)c1 [Example 180, (3-((5-(4,6-dichloropyrimidin-5-yl)pyridin-2-yl)methyl)-1,2,3-oxadiazol-3-ium-5-yl)((3-(trifluoromethyl)phenyl)carbamoyl)amide]		1000 to 20000	< 100		
COc1cc(-c2ccc(C[n+]3cc([N-]C(=O)Nc4cccc(C(F)(F)F)c4)on3)nc2)c(OC)nn1 [Example 181, (3-((5-(3,6-dimethoxypyridazin-4-yl)pyridin-2-yl)methyl)-1,2,3-oxadiazol-3-ium-5-yl)((3-(trifluoromethyl)phenyl)carbamoyl)amide]	100 to 1000	< 100			
Cc1ncnc(C)c1-c1ccc(C[n+]2cc([N-]C(=O)Nc3cccc(C4CC4)c3)on2)nc1 [Example 182, ((3-cyclopropylphenyl)carbamoyl)(3-((5-(4,6-dimethylpyrimidin-5-yl)pyridin-2-yl)methyl)-1,2,3-oxadiazol-3-ium-5-yl)amide]	100 to 1000	100 to 1000			
Cc1ncnc(C)c1-c1cnc(C[n+]2cc([N-]C(=O)Nc3cccc(C(F)(F)F)c3)on2)nc1 [Example 183, (3-((4′,6′-dimethyl-[5,5′-bipyrimidin]-2-yl)methyl)-1,2,3-oxadiazol-3-ium-5-yl)((3-(trifluoromethyl)phenyl)carbamoyl)amide]	100 to 1000	< 100			
Cc1ncnc(C)c1-c1ccc(C[n+]2cc([N-]C(=O)Nc3cccc(C(F)(F)F)c3)on2)nn1 [Example 184, (3-((6-(4,6-dimethylpyrimidin-5-yl)pyridazin-3-yl)methyl)-1,2,3-oxadiazol-3-ium-5-yl)((3-(trifluoromethyl)phenyl)carbamoyl)amide]	100 to 1000	100 to 1000			
Cc1ncnc(C)c1-c1ccc(C[n+]2cc([N-]C(=O)Nc3ccnc(C(F)(F)F)c3)on2)cc1 [Example 185, (3-(4-(4,6-dimethylpyrimidin-5-yl)benzyl)-1,2,3-oxadiazol-3-ium-5-yl)((2-(trifluoromethyl)pyridin-4-yl)carbamoyl)amide]		< 100	< 100		
Cc1noc(C)c1-c1ccc(C[n+]2cc([N-]C(=O)Nc3ccnc(C(F)(F)F)c3)on2)cc1 [Example 186, (3-(4-(3,5-dimethylisoxazol-4-yl)benzyl)-1,2,3-oxadiazol-3-ium-5-yl)((2-(trifluoromethyl)pyridin-4-yl)carbamoyl)amide]		< 100	< 100		
Cc1ncnc(C)c1-c1ccc(C[n+]2cc([N-]C(=O)Nc3cncc(C(F)(F)F)c3)on2)cc1 [Example 187, (3-(4-(4,6-dimethylpyrimidin-5-yl)benzyl)-1,2,3-oxadiazol-3-ium-5-yl)((5-(trifluoromethyl)pyridin-3-yl)carbamoyl)amide]	100 to 1000	1000 to 20000			
Cc1ncnc(C)c1-c1ccc([C@@H](C)[n+]2cc(NC(=O)Nc3ccnc(C(F)(F)F)c3)on2)cc1 [Example 188, (R)-(3-(1-(4-(4,6-dimethylpyrimidin-5-yl)phenyl)ethyl)-1,2,3-oxadiazol-3-ium-5-yl)((2-(trifluoromethyl)pyridin-4-yl)carbamoyl)amide]	< 100	< 100			
Cc1noc(C)c1-c1ccc([C@@H](C)[n+]2cc([N-]C(=O)Nc3ccnc(C(F)(F)F)c3)on2)cc1 [Example 189, (R)-(3-(1-(4-(3,5-dimethylisoxazol-4-yl)phenyl)ethyl)-1,2,3-oxadiazol-3-ium-5-yl)((2-(trifluoromethyl)pyridin-4-yl)carbamoyl)amide]	100 to 1000	100 to 1000			
Cc1ncnc(C)c1-c1ccc([C@H](C)[n+]2cc([N-]C(=O)Nc3ccnc(C(F)(F)F)c3)on2)cc1 [Example 190, (S)-(3-(1-(4-(4,6-dimethylpyrimidin-5-yl)phenyl)ethyl)-1,2,3-oxadiazol-3-ium-5-yl)((2-(trifluoromethyl)pyridin-4-yl)carbamoyl)amide]	< 100	100 to 1000			
Cc1noc(C)c1-c1ccc([C@H](C)[n+]2cc([N-]C(=O)Nc3ccnc(C(F)(F)F)c3)on2)cc1 [Example 191, (S)-(3-(1-(4-(3,5-dimethylisoxazol-4-yl)phenyl)ethyl)-1,2,3-oxadiazol-3-ium-5-yl)((2-(trifluoromethyl)pyridin-4-yl)carbamoyl)amide]				100 to 1000	100 to 1000
